Measured values reported in paper PMC11212140, “Molecular Bidents with Two Electrophilic Warheads as a New Pharmacological Modality” (ACS Central Science, 2024).

How the values were obtained:
[1] = tested on: phosphorylation of EGFR, ERK1/2, and AKT; test: Immunoblot of EGFR signaling pathway in H3255 cells; format: cell-based, human; conditions: H3255, 6 h treatment
Procedure: (A) Dose–response curves for ZNL-0056 and osimertinib in H3255 cells following 72 h of treatment. Cell viability was assessed with CellTiter-Glo. Data are presented as the mean ± SEM (n = 4). Representative data from three independent experiments are shown. (B) Immunoblot assessment of the effect of ZNL-0056 on EGFR signaling pathway in H3255 cells after 6 h treatment. Representative blots from two independent experiments are shown. […] TEXT PRINTED IN THE PICTURE: (A) ZNL-0056: H3255: IC50 (nM): 471.3 | (A) Osimertinib: H3255: IC50 (nM): 27.76 […]
For infection of Ba/F3 cells, 2.5 mL of viral supernatant and 8 μg/mL polybrene was added to 2.5 million cells per well in six-well plates. The plate was centrifuged at 2500 rpm for 90 minutes at 37 °C for the spin infection. […]
Cells were lysed in RIPA buffer (150 mM NaCl, 1.0% IGEPAL® CA-630, 0.5% sodium deoxycholate, 0.1% SDS, 50 mM Tris, pH 8.0) (Sigma, Cat# R0278) with protease inhibitor and phosphatase inhibitor (Roche). The protein concentrations were measured by BCA analysis (Thermo Fisher Scientific, Cat # PI23225). […]
or IRDye 680RD goat anti-Mouse IgG (LICOR Biosciences , Cat # 926-68070) secondary antibodies at room temperature for 1 hour. The membranes were detected on Odyssey CLx system. […]

PRP4 = tested on: T1, PRP4; test: KiNativ profiling in H3255 cells; format: cell-based, human; conditions: 2.5 µM; Lys2; CNILHADIKPDNILVNESK
T1 construct: purchased ActivX Biosciences (KiNativ)

SMILES	concentration inhibiting phosphorylation of EGFR, ERK1/2, and AKT (as low as) [1]	Inhibition (PRP4)
C=CC(=O)Nc1cc(C(=O)Nc2nc3cccc(C)c3n2[C@@H]2CCCCN(C(=O)C=C)C2)cs1 [ZNL-0056]	0.1 µM	–
C=CC(=O)Nc1cc(Nc2nccc(-c3cn(C)c4ccccc34)n2)c(OC)cc1N(C)CCN(C)C [Osimertinib, osimertinib, reference compound]	–	-3.8%
